Measured values taken from patent US20250382308A1, “COMPOUNDS ACTIVE TOWARDS BROMODOMAINS” (NUEVOLUTION A/S, priority 2022, published 2025).

Experiments:
[1] = target: second bromodomain of BRD4 (Homo sapiens (Human), UniProt O60885); assay: Bromoscan binding assay BRD4 (2); conditions: geometric mean where multiple measurements have been made
Method: (§1) Compounds were assayed for binding affinity using bromoscan assays and a phosphodiesterase three assay.
(§2) Bromoscan assays were run by DiscoveRx Corporation. The relevant assay names are BRD4 (1) for the first bromodomain of BRD4 and BRD4 (2) for the second bromodomain of BRD4. Further Bromoscan assays covering other bromodomains may be employed to establish the selectivity profile of a compound of interest. To run the Bromoscan assay, a T7 phage strain displaying the relevant bromodomain was grown in parallel in 24-well blocks in an E. coli host derived from the BL21 strain. E. coli were grown to log-phase and infected with T7 phage from a frozen stock (multiplicity of infection=0.4) and incubated with shaking at 32° C. until lysis (90-150 minutes). The lysates were centrifuged (5,000×g) and filtered (0.2 μm) to remove cell debris. […] The liganded beads were blocked with excess biotin and washed with blocking buffer (SeaBlock (Pierce), 1% BSA (bovine serum albumin), 0.05% Tween 20, 1 mM DTT (dithiothreitol)) to remove unbound ligand and to reduce non-specific phage binding. […] Test compounds were prepared as 1000× stocks in 100% DMSO and subsequently diluted 1:10 in monoethylene glycol (MEG) to create stocks at 100× the screening concentration (resulting stock solution is 10% DMSO/90% MEG). The compounds were then diluted directly into the assays such that the final concentration of DMSO and MEG were 0.1% and 0.9%, respectively. All reactions were performed in polystyrene 96-well plates in a final volume of 0.135 ml. […] The bromodomain concentration in the eluates was measured by qPCR (quantitative real-time polymerase chain reaction). Binding constants (Kds) were calculated with a standard dose-response curve using the Hill equation: Response=Blackground+((Signal-Background)/(1+Kd^Hill Slope/Dose^Hill Slope)). The Hill Slope was set to −1. Curves were fitted using a non-linear least square fit with the Levenberg-Marquardt algorithm.

[2] = target: first bromodomain of BRD4 (Homo sapiens (Human), UniProt O60885); assay: Bromoscan binding assay BRD4 (1); conditions: for Kd: Bromoscan, geometric mean where multiple measurements have been made; for Selectivity BRD4(2)/BRD4(1): ratio BRD4(2) Kd / BRD4(1) Kd
Method: as §1, §2

COc1cc(NC(=O)c2cc3c(nc2N2CC4C(C2)C4(F)F)COC3)cc2c(C)cc(=O)[nH]c12 (centres unmarked) [Example 5, 2-(6,6-difluoro-3-azabicyclo[3.1.0]hexan-3-yl)-N-(8-methoxy-4-methyl-2-oxo-1H-quinolin-6-yl)-5,7-dihydrofuro[3,4-b]pyridine-3-carboxamide]
Kd [1]: 200 nM
Kd [2]: 17 nM
Selectivity BRD4(2)/BRD4(1) [2]: 12

COc1cc(NC(=O)c2cc3c(nc2N2C[C@@H](F)[C@@H](F)C2)COC3)cc2c(C)cc(=O)[nH]c12 [Example 42, N-(8-methoxy-4-methyl-2-oxo-1H-quinolin-6-yl)-2-[rac-(3R,4S)-3,4-difluoropyrrolidin-1-yl]-5,7-dihydrofuro[3,4-b]pyridine-3-carboxamide]
Kd [1]: 400 nM
Kd [2]: 26 nM
Selectivity BRD4(2)/BRD4(1) [2]: 16

CCN(CC)c1nc2c(cc1C(=O)Nc1cc(OC)c3[nH]c(=O)cc(C)c3c1)COC2 [Example 27, 2-(diethylamino)-N-(8-methoxy-4-methyl-2-oxo-1H-quinolin-6-yl)-5,7-dihydrofuro[3,4-b]pyridine-3-carboxamide]
Selectivity BRD4(2)/BRD4(1) [2]: 24

COc1cc(NC(=O)c2cc3c(nc2N2CCOCC2)COC3C)cc2c(C)cc(=O)[nH]c12 (centres unmarked) [Example 31, N-(8-methoxy-4-methyl-2-oxo-1H-quinolin-6-yl)-5-methyl-2-morpholino-5,7-dihydrofuro[3,4-b]pyridine-3-carboxamide]
Kd [1]: 1000 nM
Kd [2]: 22 nM
Selectivity BRD4(2)/BRD4(1) [2]: 45

CCN1Cc2cc(C(=O)Nc3cc(OC)c4[nH]c(=O)cc(C)c4c3)c(N3CCOCC3)nc2C1 [Example 34, 6-ethyl-N-(8-methoxy-4-methyl-2-oxo-1H-quinolin-6-yl)-2-morpholino-5,7-dihydropyrrolo[3,4-b]pyridine-3-carboxamide]
Kd [1]: 800 nM
Kd [2]: 25 nM
Selectivity BRD4(2)/BRD4(1) [2]: 32

COc1cc(NC(=O)c2cc3c(nc2N2CC4COCC4C2)COC3)cc2c(C)cc(=O)[nH]c12 (centres unmarked) [Example 20, 2-(1,3,3a,4,6,6a-hexahydrofuro[3,4-c]pyrrol-5-yl)-N-(8-methoxy-4-methyl-2-oxo-1H-quinolin-6-yl)-5,7-dihydrofuro[3,4-b]pyridine-3-carboxamide]
Kd [1]: 3400 nM
Kd [2]: 70 nM
Selectivity BRD4(2)/BRD4(1) [2]: 49

COc1cc(NC(=O)c2cc3c(nc2N2CCOCC2)CN(C(C)C)C3)cc2c(C)cc(=O)[nH]c12 [Example 35, 6-isopropyl-N-(8-methoxy-4-methyl-2-oxo-1H-quinolin-6-yl)-2-morpholino-5,7-dihydropyrrolo[3,4-b]pyridine-3-carboxamide]
Kd [1]: 600 nM
Kd [2]: 20 nM
Selectivity BRD4(2)/BRD4(1) [2]: 30

COc1cc(NC(=O)c2cc3c(nc2N2C4CCCC2CC4)COC3)cc2c(C)cc(=O)[nH]c12 [Example 21, 2-(8-azabicyclo[3.2.1]octan-8-yl)-N-(8-methoxy-4-methyl-2-oxo-1H-quinolin-6-yl)-5,7-dihydrofuro[3,4-b]pyridine-3-carboxamide]
Kd [1]: 1400 nM
Kd [2]: 6 nM
Selectivity BRD4(2)/BRD4(1) [2]: 233

Cc1cc(=O)[nH]c2c3c(c(NC(=O)c4cc5c(nc4N4CCOCC4)COC5)cc12)OCCO3 [Example 10, N-(7-methyl-9-oxo-3,10-dihydro-2H-[1,4]dioxino[2,3-h]quinolin-5-yl)-2-morpholino-5,7-dihydrofuro[3,4-b]pyridine-3-carboxamide]
Kd [1]: > 10000 nM
Kd [2]: 43 nM
Selectivity BRD4(2)/BRD4(1) [2]: >232

Cc1cc(=O)[nH]c2c3c(c(NC(=O)c4cc5c(nc4N4CCOCC4)COC5)cc12)CCO3 [Example 8, N-(6-methyl-8-oxo-3,9-dihydro-2H-furo[3,2-h]quinolin-4-yl)-2-morpholino-5,7-dihydrofuro[3,4-b]pyridine-3-carboxamide]
Kd [1]: > 2500 nM
Kd [2]: 56 nM
Selectivity BRD4(2)/BRD4(1) [2]: 45

COc1cc(NC(=O)c2cc3c(nc2C2=CCCC2)COC3)cc2c(C)cc(=O)[nH]c12 [Example 3, 2-(cyclopenten-1-yl)-N-(8-methoxy-4-methyl-2-oxo-1H-quinolin-6-yl)-5,7-dihydrofuro[3,4-b]pyridine-3-carboxamide]
Kd [1]: 800 nM
Kd [2]: 13 nM
Selectivity BRD4(2)/BRD4(1) [2]: 62

COc1cc(NC(=O)c2cc3c(nc2N2CCC(F)(F)C2)COC3)cc2c(C)cc(=O)[nH]c12 [Example 16, 2-(3,3-difluoropyrrolidin-1-yl)-N-(8-methoxy-4-methyl-2-oxo-1H-quinolin-6-yl)-5,7-dihydrofuro[3,4-b]pyridine-3-carboxamide]
Selectivity BRD4(2)/BRD4(1) [2]: 43

COc1cc(NC(=O)c2cc3c(nc2N2C[C@H]4CCO[C@H]4C2)COC3)cc2c(C)cc(=O)[nH]c12 (racemic) [Example 22, N-(8-methoxy-4-methyl-2-oxo-1H-quinolin-6-yl)-2-[rac-(3aR,6aR)-2,3,3a,4,6,6a-hexahydrofuro[2,3-c]pyrrol-5-yl]-5,7-dihydrofuro[3,4-b]pyridine-3-carboxamide]
Kd [1]: 3800 nM
Kd [2]: 170 nM
Selectivity BRD4(2)/BRD4(1) [2]: 22

COc1c(F)c(NC(=O)c2cc3c(nc2N2CCOCC2)COC3)cc2c(C)cc(=O)[nH]c12 [Example 9, N-(7-fluoro-8-methoxy-4-methyl-2-oxo-1H-quinolin-6-yl)-2-morpholino-5,7-dihydrofuro[3,4-b]pyridine-3-carboxamide]
Kd [1]: 7400 nM
Kd [2]: 440 nM
Selectivity BRD4(2)/BRD4(1) [2]: 17

COc1cc(NC(=O)c2cc3c(nc2N2CCOCC2)CO[C@@H]3C)cc2c(C)cc(=O)[nH]c12 [Example 30, (5R)—N-(8-methoxy-4-methyl-2-oxo-1H-quinolin-6-yl)-5-methyl-2-morpholino-5,7-dihydrofuro[3,4-b]pyridine-3-carboxamide]
Kd [1]: 1200 nM
Kd [2]: 14 nM
Selectivity BRD4(2)/BRD4(1) [2]: 86

COc1cc(NC(=O)c2cc3c(nc2N2CCC[C@@H]2C)COC3)cc2c(C)cc(=O)[nH]c12 [Example 25, N-(8-methoxy-4-methyl-2-oxo-1H-quinolin-6-yl)-2-[(2S)-2-methylpyrrolidin-1-yl]-5,7-dihydrofuro[3,4-b]pyridine-3-carboxamide]
Kd [1]: 4500 nM
Kd [2]: 150 nM
Selectivity BRD4(2)/BRD4(1) [2]: 30

CCN(c1nc2c(cc1C(=O)Nc1cc(OC)c3[nH]c(=O)cc(C)c3c1)COC2)C(C)C [Example 28, 2-[ethyl(isopropyl)amino]-N-(8-methoxy-4-methyl-2-oxo-1H-quinolin-6-yl)-5,7-dihydrofuro[3,4-b]pyridine-3-carboxamide]
Kd [1]: 1000 nM
Kd [2]: 33 nM
Selectivity BRD4(2)/BRD4(1) [2]: 30

COc1cc(NC(=O)c2cc3c(nc2N2CC4CCOC4C2)COC3)cc2c(C)cc(=O)[nH]c12 (centres unmarked) [Example 19, 2-(2,3,3a,4,6,6a-hexahydrofuro[2,3-c]pyrrol-5-yl)-N-(8-methoxy-4-methyl-2-oxo-1H-quinolin-6-yl)-5,7-dihydrofuro[3,4-b]pyridine-3-carboxamide]
Kd [1]: 5600 nM
Kd [2]: 180 nM
Selectivity BRD4(2)/BRD4(1) [2]: 31

COc1cc(NC(=O)c2cc3c(nc2N2CCOCC2)CN(C)C3)cc2c(C)cc(=O)[nH]c12 [Example 32, N-(8-methoxy-4-methyl-2-oxo-1H-quinolin-6-yl)-6-methyl-2-morpholino-5,7-dihydropyrrolo[3,4-b]pyridine-3-carboxamide]
Kd [1]: 300 nM
Kd [2]: 17 nM
Selectivity BRD4(2)/BRD4(1) [2]: 18
